Like-named read-outs stand apart in the source and are kept apart here. Marks after values point to notes of the source that are not given here.
Columns and labels:
serotonin transporter = serotonin transporter (Homo sapiens, UniProt P31645); settings: cited from earlier work
drug users / humans = settings: methylone 50 mg in humans (Poyatos 2022); cited from earlier work
Sprague Dawley rats = assay: Forced Swim Test (FST); format: in vivo, rat; settings: for reduction in immobility compared to saline vehicle: single dose 30 min prior to testing (Example 6)
Excerpt: The Forced Swim Test (FST) is a classic, and the most used preclinical behavioral assay to screen compounds with antidepressant-like activity and has high predictive and face validity (Porsolt et al. (1977) Nature 266:730; Borsini and Meli (1988) Psychopharmacology 94:147). The premise of the FST is that when rats are placed into a cylinder filled with water, they will initially try to escape, but over time will become immobile. This increased immobility reflects behavioral despair, modeling a depressive-like state.
Animals: Male Sprague Dawley rats (Charles River Laboratories) weighing 180-200 g on arrival, were used for this study which took place at Melior Discovery (Exton, PA). Rats acclimated to their home cages for at least one week before testing, were maintained in a controlled environment on a 12 h light/dark cycle, with no more than 2 rats per cage. Animals received ad libitum access to food and water and were assigned randomly to treatment groups. Animal use and procedures were in accordance with established protocols approved by the IACUC committee, Melior Standard Operation Procedures (SOP), and Transcend Therapeutics.
Forced Swim Test (FST): In the FST trial, rats were be placed in a circular plexiglass container filled with water, with no means of escape. Water temperature was maintained at 22-25° C. and changed for every animal. After an acclimation period, rats were timed for inactivity (failure to struggle), activity, swim time and climbing time. Day 1 consisted of a 15 min acclimation trial, and Day 2 (24 h later) consisted of the 5 min test. A time sampling procedure was employed where animals were observed every 5 sec and scored for immobility, swimming, or climbing. Fluoxetine (10 mg/kg, IP, Sigma Aldrich) or 0.9% sterile saline vehicle (vehicle 3× group) were administered 23.5, 5, and 1 h before testing in the FST. […] The experimenter was blinded to treatment.
Statistical Analysis: Data for each parameter of the test (immobility, swimming, or climbing) is expressed as the mean±SEM. Differences between groups were determined by one-way ANOVA and post-hoc Tukey's test with a p-value of less than 0.05 indicating statistically significant differences.
Forced Swim Test: In the FST trial, rats were be placed in a circular plexiglass container filled with water, with no means of escape. Water temperature was maintained at 22-25° C. and changed for every animal. After an acclimation period, rats were timed for inactivity (failure to struggle), activity, swim time and climbing time. Day 1 consisted of a 15 min acclimation trial, and Day 2 (24 h later) consisted of the 5 min test. A time sampling procedure was employed where animals were observed every 5 sec and scored for immobility, swimming, or climbing. Fluoxetine (10 mg/kg, IP, Sigma Aldrich) or 0.9% sterile saline vehicle (vehicle 3× group) were administered 23.5, 5, and 1 h before testing in the FST. 2C-B (2.5, 10, or 20 mg/kg, IP, Cayman Chemical) or 0.9% saline vehicle (vehicle 1× group) were administered 30 min prior to FST testing. The experimenter was blinded to treatment.
Drug Treatment: Fluoxetine (10 mg/kg, IP, Sigma Aldrich) or 0.9% sterile saline vehicle were administered 23.5, 5, and 1 h before testing in the FST. […] Control animals received fluoxetine alone, methylone alone, or saline vehicle.
Forced Swim Test: In the FST trial, rats were be placed in a circular plexiglass container filled with water, with no means of escape. Water temperature was maintained at 22-25° C. and changed for every animal. After an acclimation period, rats were timed for inactivity (failure to struggle), activity, swim time and climbing time. The experimenter and scorer were blind to treatment group. Day 1 consisted of a 15 min acclimation trial, and Day 2 (24 h later) consisted of the 5 min test. A time sampling procedure was employed where animals were observed every 5 sec and scored for immobility, swimming, or climbing. […]

168 GPCRs = assay: DiscoverX PathHunter β-arrestin GPCR screen, agonist and antagonist mode; format: cell-based; settings: 1 and 10 micromolar
Description: For agonist determination, cells were incubated with sample to induce response. […] Vehicle concentration was 1%.
Vehicle concentration was 1%.

[1] = molecular target: serotonin (5HT) transporter (Homo sapiens, UniProt P31645); assay: Radioligand binding, [3H] citalopram
[2] = system: patients with a diagnosis of PTSD or MDD; healthy subjects; assay: Methylone case series (Example 4, Cohorts 1 and 2): CGI-S/CGI-I and safety events; format: in vivo, human
Description: CGI-S scale was also evaluated in a subset of patients from Cohort 2 post-treatment. Cohort 2 was evaluated for any observed or reported safety events following a single dosing session.
Clinical Global Impressions (CGI) scale includes 2 components: CGI-S(“severity”) and CGI-I (“improvement”).
• 1=Normal—not at all ill, symptoms of disorder not present past seven days • 2=Borderline mentally ill-subtle or suspected pathology • 3=Mildly ill-clearly established symptoms with minimal, if any, distress or difficulty in social and occupational function • 4=Moderately ill-overt symptoms causing noticeable, but modest, functional impairment or distress; symptom level may warrant medication • 5=Markedly ill-intrusive symptoms that distinctly impair social/occupational function or cause intrusive levels of distress • 6=Severely ill-disruptive pathology, behavior and function are frequently influenced by symptoms, may require assistance from others • 7=Among the most extremely ill patients-pathology drastically interferes in many life functions; may be hospitalized
Only sessions that included methylone dosing were counted as dosing sessions.
Single sessions occurred for 8 of the 28 cases with no booster in two of these cases. In the remainder of the cases, multiple sessions occurred, and booster doses were used in all or some of the remaining patients ([…]) with multiple booster doses used in some or all of the sessions in 15 patients.

serotonin transporter, sequence (P31645 whole entry): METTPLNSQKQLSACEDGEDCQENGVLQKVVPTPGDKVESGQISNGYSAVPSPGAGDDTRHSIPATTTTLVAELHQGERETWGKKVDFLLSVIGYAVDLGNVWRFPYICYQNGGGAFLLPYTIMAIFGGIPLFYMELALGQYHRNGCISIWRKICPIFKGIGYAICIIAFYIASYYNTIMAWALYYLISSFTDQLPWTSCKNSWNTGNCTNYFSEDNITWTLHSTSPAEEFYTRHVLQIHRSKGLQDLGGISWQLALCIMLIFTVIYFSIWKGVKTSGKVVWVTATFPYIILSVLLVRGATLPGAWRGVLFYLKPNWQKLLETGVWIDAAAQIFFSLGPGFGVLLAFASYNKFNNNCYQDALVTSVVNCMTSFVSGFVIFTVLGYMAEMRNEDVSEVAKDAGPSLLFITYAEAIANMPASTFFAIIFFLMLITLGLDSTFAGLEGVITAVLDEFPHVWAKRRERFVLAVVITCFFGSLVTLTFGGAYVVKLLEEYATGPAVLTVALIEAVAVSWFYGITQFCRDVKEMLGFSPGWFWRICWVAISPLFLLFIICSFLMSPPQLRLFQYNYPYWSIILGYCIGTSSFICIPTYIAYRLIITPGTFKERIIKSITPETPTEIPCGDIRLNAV
serotonin (5HT) transporter, sequence (P31645 whole entry): as above

For `CNC(C)C(=O)c1ccc2c(c1)OCO2` (centres unmarked) [methylone, 3,4-methylenedioxy-N-methylcathinone], the “affinity for the serotonin transporter lower by comparison to MDMA” value (serotonin transporter) is given as 3 ×, the side effects (drug users / humans) is given as “no detectable side effects” and the climbing behavior (Sprague Dawley rats; Example 8) is given as “significantly increased climbing behavior”. For the same compound, the “reduced immobility compared to vehicle” value (Sprague Dawley rats; Methylone alone, 5 mg/kg IP (Example 8)) was 71%, the “reduced immobility compared to vehicle” value (Sprague Dawley rats; combined treatment: fluoxetine x3 plus Methylone 15 mg/kg IP (Example 8)) was 95% and the “reduction in immobility compared to saline vehicle” value (shortened to “reduction in immobility”) (Sprague Dawley rats; methylone 5 mg/kg IP) was 54%. The “reduction in immobility” value (Sprague Dawley rats; methylone 15 mg/kg IP) was 99%, the “reduction in immobility” value (Sprague Dawley rats; methylone 30 mg/kg IP) was 96% and the climbing (Sprague Dawley rats; methylone 5, 15, 30 mg/kg IP, Example 6) was “only increased at the lowest dose”. For the same compound, the swimming (Sprague Dawley rats; methylone mid and high doses (15, 30 mg/kg IP), Example 6) was “significantly increased swimming”, the “reduced immobility vs. vehicle” value (Sprague Dawley rats; single dose of Methylone (5 mg/kg IP) after three prior doses of fluoxetine 10 mg/kg IP (Example 8)) was 62% and the immobility time (Sprague Dawley rats; single doses of 10 and 15 mg/kg methylone IP (Example 11)) was “reducing immobility time significantly”. The immobility (Sprague Dawley rats; two or three 5 mg/kg doses IP (Example 11)) was “significantly reduce immobility”, the “agonist or antagonist activity (criteria: >30% activity, >50% inhibition)” value (168 GPCRs) was “did not meet criteria for agonist or antagonist activity” and the “binding at the 5HT transporter” value [1] was “confirmed methylone binding”. For the same compound, the “Number of cases (N = 28), Magnitude of Improvement” value (shortened to “Number of cases”) [2] was 0, the “adverse effects or after-effects” value ([2]; Cohort 1, 4 healthy subjects, single session, total dose 790 or 870 mg oral) was “no adverse effects or after-effects were observed or reported” and the “cases in which methylone dosing was well tolerated and no safety events were reported” value ([2]; Cohort 2, 25 of 28 cases) was 89.3%. For the same compound, the “patients with initial improvement with the first methylone session” value ([2]; Cohort 2, 25 of 28 patients) was ~90%, the “patients achieving CGI-I 1 or 2” value ([2]; Cohort 2 MDD subset, 8/8 patients) was 100% and the “patients achieving CGI-I 1 or 2” value ([2]; Cohort 2 PTSD subset, 16/20 patients) was 80%. The “patients achieving CGI-I 1 or 2 (much improved or very much improved)” value ([2]; Cohort 2 overall, N=28, oral methylone, single or multiple sessions, compared to baseline CGI-S) was 86%, the “cases reporting a durable effect” value ([2]; MDD subset of Cohort 2, 6 narratives with durability information) was 5 and the “cases with durable effect of 6 months or greater” value ([2]; PTSD subset of Cohort 2) was 12. The “case narratives reporting a durable effect” value ([2]; PTSD subset of Cohort 2, 16 narratives with durability information) was 15, the “patients with magnitude of improvement CGI 1 or 2” value ([2]; PTSD subset, of 5 patients with concomitant SSRIs or other antidepressant classes) was 4 and the “Number of cases” value ([2]; highest observed CGI-I = 1 (very much improved), Cohort 2) was 11*. The “Number of cases” value ([2]; highest observed CGI-I = 2 (much improved), Cohort 2) was 13, the “Number of cases” value ([2]; highest observed CGI-I = 3 (minimally improved), Cohort 2) was 4 and the “Number of cases” value ([2]; highest observed CGI-I = 4 (no change), Cohort 2) was 0. The “Number of cases” value ([2]; highest observed CGI-I = 5 (minimally worse), Cohort 2) was 0 and the “Number of cases” value ([2]; highest observed CGI-I = 6 (much worse), Cohort 2) was 0.

From patent US20250221957A1, “PS[…] AND THEIR USE FOR TREATING […] AND NE[…] DISORDERS” (Transcend Therapeutics, Inc., priority 2021, published 2025)
